In ChEMBL document CHEMBL3603736, “3-Substituted pyrazoles and 4-substituted triazoles as inhibitors of human 15-lipoxygenase-1” (Bioorg Med Chem Lett, 2015):
Values after ≈ are worked out from the molar mass of the structure shown. Each block holds one compound with its values, some of them ahead of it. Active and inactive are the calls of the source. The calls are words filed in the database; no cut-off is given here.

What was measured:
[1] = molecular target: T1, Polyunsaturated fatty acid lipoxygenase ALOX15 (Homo sapiens, UniProt P16050); conditions: l1236
T1 sequence (P16050 whole entry): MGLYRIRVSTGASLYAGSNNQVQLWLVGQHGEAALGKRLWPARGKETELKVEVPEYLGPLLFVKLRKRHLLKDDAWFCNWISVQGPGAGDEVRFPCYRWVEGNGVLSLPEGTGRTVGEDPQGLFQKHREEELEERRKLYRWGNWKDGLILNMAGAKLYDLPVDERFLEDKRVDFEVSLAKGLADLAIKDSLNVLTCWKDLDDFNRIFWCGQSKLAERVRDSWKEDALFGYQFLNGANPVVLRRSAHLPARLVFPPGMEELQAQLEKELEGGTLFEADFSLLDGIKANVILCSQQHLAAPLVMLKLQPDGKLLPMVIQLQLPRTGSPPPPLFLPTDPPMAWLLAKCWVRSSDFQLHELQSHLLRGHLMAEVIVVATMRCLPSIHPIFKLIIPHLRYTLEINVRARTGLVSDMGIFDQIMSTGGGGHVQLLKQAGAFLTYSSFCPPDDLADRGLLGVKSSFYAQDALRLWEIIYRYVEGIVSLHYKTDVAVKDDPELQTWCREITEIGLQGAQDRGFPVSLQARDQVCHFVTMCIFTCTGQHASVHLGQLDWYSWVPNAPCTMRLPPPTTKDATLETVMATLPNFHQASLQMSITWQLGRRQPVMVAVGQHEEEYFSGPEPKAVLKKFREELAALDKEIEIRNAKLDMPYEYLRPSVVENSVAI
Description: (§1) Inhibition of 15-LOX-1 in human L1236 cells assessed as reduction in conversion of arachidonic acid to 15-HETE pre-incubated 5 min before arachidonic acid substrate addition by HPLC-UV spectroscopy

[2] = molecular target: T1, Polyunsaturated fatty acid lipoxygenase ALOX15
Description: (§2) Inhibition of human 15-LOX-1 expressed in Sf9 cells assessed as reduction in conversion of arachidonic acid to 15-HETE pre-incubated 5 min before arachidonic acid substrate addition by HPLC-UV spectroscopy

[3] = molecular target: T1, Polyunsaturated fatty acid lipoxygenase ALOX15; remark: listed apart in the source
Description: as §1

[4] = molecular target: T1, Polyunsaturated fatty acid lipoxygenase ALOX15; conditions: sf9
Description: as §2

Cytochrome P450 2C9 [5] = molecular target: T2, Cytochrome P450 2C9 (Homo sapiens, UniProt P11712); test: Inhibition of human CYP2C9; format: ADME
Cytochrome P450 2C9 [6] = molecular target: T2, Cytochrome P450 2C9; test: Inhibition of human CYP2C9 at 10 uM; format: ADME; conditions: 10 µM
Cytochrome P450 2C19 [7] = molecular target: T3, Cytochrome P450 2C19 (Homo sapiens, UniProt P33261); test: Inhibition of human CYP2C19; format: ADME
Cytochrome P450 2C19 [8] = molecular target: T3, Cytochrome P450 2C19; test: Inhibition of human CYP2C19 at 10 uM; format: ADME; conditions: 10 µM
Escherichia coli = test: Genotoxicity in Escherichia coli by SOS/umu test; format: toxicity, organism-based
[9] = Protein binding in plasma (unknown origin); format: ADME, cell-free; conditions: read-out: PPB (converted)
[10] = molecular target: Voltage-gated inwardly rectifying potassium channel KCNH2 (Homo sapiens, UniProt Q12809); test: Inhibition of human ERG
[11] = molecular target: T4, Prostaglandin G/H synthase 1 (Ovis aries) (UniProt P05979); test: Inhibition of ovine COX1 assessed as reduction in PGH2-derived PGF2alpha production at 10 uM by enzyme immunoassay
T4 sequence (whole entry): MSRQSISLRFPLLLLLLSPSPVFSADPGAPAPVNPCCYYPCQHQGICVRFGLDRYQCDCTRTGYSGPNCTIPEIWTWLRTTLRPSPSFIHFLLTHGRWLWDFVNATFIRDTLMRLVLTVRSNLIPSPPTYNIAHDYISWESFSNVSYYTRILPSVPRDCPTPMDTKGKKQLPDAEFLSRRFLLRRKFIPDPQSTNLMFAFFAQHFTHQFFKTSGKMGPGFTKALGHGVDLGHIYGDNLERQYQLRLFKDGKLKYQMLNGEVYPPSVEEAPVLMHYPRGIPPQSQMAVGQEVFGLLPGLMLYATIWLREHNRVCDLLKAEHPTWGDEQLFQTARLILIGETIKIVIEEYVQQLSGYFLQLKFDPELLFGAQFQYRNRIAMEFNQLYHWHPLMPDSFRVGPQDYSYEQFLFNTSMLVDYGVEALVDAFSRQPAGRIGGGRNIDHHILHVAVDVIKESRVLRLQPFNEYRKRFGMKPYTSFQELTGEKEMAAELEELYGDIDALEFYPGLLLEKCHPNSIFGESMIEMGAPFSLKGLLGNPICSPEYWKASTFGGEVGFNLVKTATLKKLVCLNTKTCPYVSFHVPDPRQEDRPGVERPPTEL

[12] = molecular target: T5, Prostaglandin G/H synthase 2 (Homo sapiens) (UniProt P35354); test: Inhibition of human recombinant COX2 assessed as reduction in PGH2-derived PGF2alpha production at 10 uM by enzyme immunoassay
T5 sequence (whole entry): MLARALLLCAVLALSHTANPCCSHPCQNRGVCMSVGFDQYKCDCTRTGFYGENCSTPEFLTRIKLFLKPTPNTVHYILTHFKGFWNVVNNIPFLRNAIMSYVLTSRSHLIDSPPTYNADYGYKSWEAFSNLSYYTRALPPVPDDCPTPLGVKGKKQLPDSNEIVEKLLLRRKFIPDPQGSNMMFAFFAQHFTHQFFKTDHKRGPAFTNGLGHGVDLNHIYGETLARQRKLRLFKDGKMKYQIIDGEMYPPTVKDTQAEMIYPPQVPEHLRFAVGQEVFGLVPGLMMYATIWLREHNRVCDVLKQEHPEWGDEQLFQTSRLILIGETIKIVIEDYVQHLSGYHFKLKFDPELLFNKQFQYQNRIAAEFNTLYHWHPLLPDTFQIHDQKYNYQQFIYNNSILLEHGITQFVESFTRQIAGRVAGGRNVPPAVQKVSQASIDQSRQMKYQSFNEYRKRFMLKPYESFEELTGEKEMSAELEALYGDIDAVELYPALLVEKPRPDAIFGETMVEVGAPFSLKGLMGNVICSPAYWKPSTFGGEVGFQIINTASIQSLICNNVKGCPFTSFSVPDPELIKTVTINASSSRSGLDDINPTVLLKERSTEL

[13] = Aqueous solubility in pH 2.0 buffer; format: physicochemical
[14] = Aqueous solubility in pH 7.4 buffer; format: physicochemical
[15] = Aqueous solubility in pH 10 buffer; format: physicochemical
[16] = Half life in human microsomes; format: ADME, Microsome
[17] = Intrinsic clearance in human microsomes; format: ADME, Microsome
Caco-2 = test: Permeability in human Caco2 cells; format: ADME, cell-based
Cytochrome P450 1A2 = Cytochrome P450 1A2 (Homo sapiens, UniProt P05177); test: Inhibition of human CYP1A2 at 10 uM; format: ADME; conditions: 10 µM
Sequence of Cytochrome P450 1A2 (P05177 whole entry): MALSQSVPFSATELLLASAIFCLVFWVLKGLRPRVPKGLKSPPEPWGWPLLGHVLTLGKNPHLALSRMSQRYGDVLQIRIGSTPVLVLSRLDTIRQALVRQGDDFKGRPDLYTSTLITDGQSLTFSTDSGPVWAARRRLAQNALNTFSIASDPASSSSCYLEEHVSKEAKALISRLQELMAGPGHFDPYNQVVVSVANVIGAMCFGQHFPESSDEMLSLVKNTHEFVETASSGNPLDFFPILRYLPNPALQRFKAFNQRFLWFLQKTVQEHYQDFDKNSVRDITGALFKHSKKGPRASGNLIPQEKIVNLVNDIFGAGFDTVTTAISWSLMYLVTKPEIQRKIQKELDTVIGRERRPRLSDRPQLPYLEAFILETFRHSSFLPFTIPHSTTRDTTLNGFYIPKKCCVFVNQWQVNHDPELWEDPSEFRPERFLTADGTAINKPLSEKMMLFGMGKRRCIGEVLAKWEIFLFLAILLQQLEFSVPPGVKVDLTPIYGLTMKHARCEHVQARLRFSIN

T3 sequence (P33261 whole entry): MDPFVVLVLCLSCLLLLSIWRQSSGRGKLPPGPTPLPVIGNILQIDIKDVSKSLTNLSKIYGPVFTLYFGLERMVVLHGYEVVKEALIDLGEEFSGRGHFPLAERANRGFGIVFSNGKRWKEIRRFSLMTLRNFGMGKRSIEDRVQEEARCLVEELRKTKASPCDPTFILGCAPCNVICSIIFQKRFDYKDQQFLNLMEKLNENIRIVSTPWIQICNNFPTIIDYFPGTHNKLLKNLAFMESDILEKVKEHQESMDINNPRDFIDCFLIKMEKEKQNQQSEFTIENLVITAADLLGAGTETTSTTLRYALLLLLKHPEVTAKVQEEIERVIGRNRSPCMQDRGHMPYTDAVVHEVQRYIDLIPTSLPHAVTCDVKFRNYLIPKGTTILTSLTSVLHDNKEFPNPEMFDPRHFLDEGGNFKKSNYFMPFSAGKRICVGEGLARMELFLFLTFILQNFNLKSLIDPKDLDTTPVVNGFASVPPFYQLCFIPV
T2 sequence (P11712 whole entry): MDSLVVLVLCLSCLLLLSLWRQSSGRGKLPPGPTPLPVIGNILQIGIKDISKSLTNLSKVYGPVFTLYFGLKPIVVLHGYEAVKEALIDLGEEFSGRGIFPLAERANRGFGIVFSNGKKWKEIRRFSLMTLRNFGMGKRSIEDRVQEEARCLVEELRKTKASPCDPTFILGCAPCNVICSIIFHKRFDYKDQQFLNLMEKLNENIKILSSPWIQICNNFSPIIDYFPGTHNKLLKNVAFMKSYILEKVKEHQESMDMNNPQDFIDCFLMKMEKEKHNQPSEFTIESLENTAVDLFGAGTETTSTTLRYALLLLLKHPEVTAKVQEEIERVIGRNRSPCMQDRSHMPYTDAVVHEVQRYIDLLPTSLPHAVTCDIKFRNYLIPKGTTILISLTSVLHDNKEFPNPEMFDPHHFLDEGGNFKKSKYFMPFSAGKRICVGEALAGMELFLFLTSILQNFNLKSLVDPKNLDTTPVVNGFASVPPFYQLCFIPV
Sequence of Voltage-gated inwardly rectifying potassium channel KCNH2 (Q12809 whole entry): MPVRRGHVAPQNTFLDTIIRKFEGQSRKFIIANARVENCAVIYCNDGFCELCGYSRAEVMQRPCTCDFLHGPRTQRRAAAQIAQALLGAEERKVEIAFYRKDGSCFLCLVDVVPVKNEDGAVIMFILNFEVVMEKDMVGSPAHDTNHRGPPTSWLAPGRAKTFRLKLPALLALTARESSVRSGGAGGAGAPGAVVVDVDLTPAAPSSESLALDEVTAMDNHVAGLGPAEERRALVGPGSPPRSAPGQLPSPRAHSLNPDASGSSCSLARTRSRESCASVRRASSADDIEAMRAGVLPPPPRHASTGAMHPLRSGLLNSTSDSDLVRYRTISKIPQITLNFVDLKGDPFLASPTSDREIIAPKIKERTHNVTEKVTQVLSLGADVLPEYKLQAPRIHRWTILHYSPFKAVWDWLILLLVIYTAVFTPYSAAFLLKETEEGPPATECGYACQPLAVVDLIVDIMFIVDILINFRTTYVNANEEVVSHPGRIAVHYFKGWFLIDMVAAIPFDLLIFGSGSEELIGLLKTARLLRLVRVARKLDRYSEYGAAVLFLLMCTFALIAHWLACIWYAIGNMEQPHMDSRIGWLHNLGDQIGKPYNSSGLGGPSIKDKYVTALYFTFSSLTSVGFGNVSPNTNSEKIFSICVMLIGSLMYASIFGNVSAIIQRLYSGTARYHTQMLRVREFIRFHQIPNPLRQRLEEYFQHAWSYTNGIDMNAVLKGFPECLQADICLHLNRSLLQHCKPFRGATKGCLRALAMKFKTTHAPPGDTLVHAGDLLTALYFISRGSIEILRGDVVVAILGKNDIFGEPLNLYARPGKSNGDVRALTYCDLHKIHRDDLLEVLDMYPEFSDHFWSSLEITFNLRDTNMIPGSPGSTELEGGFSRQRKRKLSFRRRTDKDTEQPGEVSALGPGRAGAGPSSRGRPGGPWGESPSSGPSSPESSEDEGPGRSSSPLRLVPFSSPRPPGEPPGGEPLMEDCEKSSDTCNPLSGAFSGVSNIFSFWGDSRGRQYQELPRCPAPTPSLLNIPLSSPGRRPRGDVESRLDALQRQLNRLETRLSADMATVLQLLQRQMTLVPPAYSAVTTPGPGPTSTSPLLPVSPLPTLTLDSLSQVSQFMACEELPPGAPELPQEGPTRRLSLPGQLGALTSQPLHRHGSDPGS

SMILES: O=C(Nc1ccc(F)cc1)c1cn[nH]n1
IC50 [2]: 947 nM | IC50 [3]: 2430 nM

SMILES: O=C(Nc1ccc(F)cc1Cl)c1n[nH]cc1[N+](=O)[O-]
IC50 [2]: 5900 nM | IC50 [3]: 616 nM

SMILES: O=C(NCc1ccccc1)c1cc[nH]n1
IC50 [4]: Not Active

SMILES: O=C(Nc1ccc2ccccc2n1)c1cc[nH]n1
IC50 (Cytochrome P450 2C9 [5]): Not Active | inhibition (INH) (Cytochrome P450 2C9 [6]): Not Active | IC50 (Cytochrome P450 2C19 [7]): Not Active | inhibition (INH) (Cytochrome P450 2C19 [8]): Not Active | Activity (Escherichia coli): Non-toxic | fraction unbound [9]: 0.072 | inhibition (INH) [10]: Not Active | inhibition [11]: 9% | inhibition [12]: inactive | solubility [13]: 573 µg/mL (≈ 2410 µM) | solubility [14]: 10.1 µg/mL (≈ 42.4 µM) | solubility [15]: 10.1 µg/mL (≈ 42.4 µM) | half-life [16]: > 1.67 h | microsomal CLint [17]: 7 µL/min/mg | permeability (Caco-2): permeable | inhibition (INH) (Cytochrome P450 1A2): 75% | IC50 [2]: 180 nM | IC50 [3]: 92 nM

SMILES: O=C(Nc1ccc(F)cc1Cl)c1n[nH]cc1-c1ccccc1
IC50 [1]: Not Active

Other lines, results leading:

IC50 [1]: Not Active
SMILES: CS(=O)(=O)Nc1c[nH]nc1C(=O)Nc1ccc(F)cc1Cl

IC50 [1]: Not Active
SMILES: O=C(Nc1ccncc1)c1cc[nH]n1

IC50 [3]: 3290 nM | IC50 [4]: Not Active
SMILES: O=C(Nc1ccc(F)cc1Cl)c1cc([N+](=O)[O-])[nH]n1

IC50 [2]: 2 nM | IC50 [3]: 34 nM
SMILES: Clc1ccc2nc(-c3n[nH]c(Cl)c3Cl)oc2c1

IC50 [1]: Not Active
SMILES: O=C(Nc1cccnc1)c1ccn[nH]1

IC50 [3]: 270 nM
SMILES: O=C(Nc1ccc(F)cc1)c1cc[nH]n1
